Reference: patent publication US20250066318A1, “HETEROCYCLIC COMPOUNDS AS DYRK1A INHIBITORS” (Prothena Biosciences Limited, priority 2021, published 2025)
pIC50: −log10 of the molar value.

Biological target: DYRK1A (Homo sapiens (Human), UniProt Q13627)
Assay: DYRK1A Inhibition Assay
Assay type: biochemical
Conditions: Selected Compounds of Formula (I); DYRK1A 1 nM, ATP 20 μM, Ser/Thr 18 peptide 2 μM, 90 minutes; read-out: DYRK1 IC50
Procedure: DYRK1A—Invitrogen #PV4105
Ser/Thr 18 peptide—Invitrogen #PR8227U Phos-Ser/Thr 18 peptide—Invitrogen #PR8229U Assay plate—PerkinElmer #6007279
Development reagent A—Invitrogen #PR5194B Development buffer—Invitrogen #PR4876B
1. Test compounds were diluted to 1 mM in DMSO 2. Stock was further diluted 3-fold using Echo platform 3. 100 nL of DMSO into Columns 1 and 24 and 100 nL of compounds dilutions to Columns 2-23 in a plate.
1. Add 5 μL enzyme & substrate mixture to each well in Column 2-23 and A24-H24 wells of the 384-well assay plate; 2. Add 5 μL 0% Phosphorylation control to A1-H1 and I24-P24 wells of the assay plate; 3. Add 5 μL 100% Phosphorylation control to I1-P1 wells of the assay plate; 4. Spin the assay plate (1000 rpm, 1 minute @23° C.); 5. Incubate enzyme with compounds for 15 minutes at 23° C.; 6. Add 5 μL ATP solution to each well of the assay plate; 7. Spin the plate (1000 rpm, 1 minute @23° C.); 8. Incubate the assay plate for 90 minutes at 23° C.; 9. Add 10 μL Development reagent A to each well of the assay plate; 10. Centrifuge the plate at 1000 rpm about 15 seconds and seal a film over assay plate. Incubate the assay plate for 30 minutes at 23° C. 11. Read assay plates on Envision (see Tables A, B, and C).
Final Compound Concentrations
Assay buffer: 50 mM Hepes pH7.5, 10 mM MgCl2, 1 mM EDTA, 0.01% Brij-35
Ser/Thr 18 peptide: 2 μM Reaction time: 90 minutes

pIC50	Structure (SMILES)
≥ 8.00	O=C(O)[C@H]1C[C@H](Nc2ncc(-c3ccc4cnccc4c3)s2)C1 [Compound 72]
6.00 to 7.00	O=C(O)C1CCN(Cc2cncc3ccc(-c4cnc(C#CC5CCOCC5)s4)cc23)CC1 [Compound 91]
< 6.00	CC(C)(O)C#Cc1ncc(-c2ccc3cncc(CN4CCC(C(=O)O)CC4)c3c2)s1 [Compound 109]
≥ 8.00	CN1CC(OC(=O)Nc2cc3cc(-c4cnn(C)c4)ccc3cn2)C1 [Compound 84]
